{"source": "EPA's ToxValDB 9.5 (doi:10.2903/j.efsa.2009.1348)", "key": {"[1]": {"conditions": "chronic/long-term"}, "Apis mellifera": {"test_system": "Apis mellifera", "conditions": "acute; duration: 48 hours; oral; unspecified; mortality"}, "Bibionidae": {"test_system": "Bibionidae", "conditions": "chronic/long-term; duration: 28 days"}, "Bird": {"test_system": "Bird", "conditions": "for LD50: acute, unspecified"}, "Canidae": {"test_system": "Canidae", "conditions": "chronic; duration: 1 years; oral; Dog Other; organ weight"}, "Daphnia magna": {"test_system": "Daphnia magna", "conditions": "chronic/long-term; duration: 21 days; reproduction"}, "Lepomis macrochirus": {"test_system": "Lepomis macrochirus", "conditions": "acute; duration: 96 hours; mortality"}, "Oryctolagus sp.": {"test_system": "Oryctolagus sp.", "conditions": "reproduction developmental; reproduction"}, "Oncorhynchus mykiss": {"test_system": "Oncorhynchus mykiss", "conditions": "chronic/long-term; duration: 28 days"}}, "data": [{"compound": "C[C@@H](Oc1ccc(Oc2ncc(C(F)(F)F)cc2Cl)cc1)C(=O)O", "note": "[Haloxyfop-P]", "values": [{"measurement": "NOAEL", "setting": "[1]", "value": 1, "unit": "mg/kg-day"}, {"measurement": "LEL", "setting": "Aphidius rhopalosiphi; chronic/long-term, reproduction", "value": 5.7, "unit": "g/ha"}, {"measurement": "LEL", "setting": "Aphidius rhopalosiphi; not reported, mortality", "value": 108, "unit": "g/ha"}, {"measurement": "LD50", "setting": "Apis mellifera", "value": "> 100", "unit": "µg/piece"}, {"measurement": "NOEC", "setting": "Bibionidae", "value": 2.5, "unit": "mg/L"}, {"measurement": "LD50", "setting": "Bird; oral, mortality", "value": 414, "unit": "mg/kg"}, {"measurement": "NOEC", "setting": "Bird; reproductive", "value": 17.1, "unit": "mg/kg-day"}, {"measurement": "LC50", "setting": "Bird; short-term, oral, feed, mortality", "value": "> 1110", "unit": "mg/kg-day"}, {"measurement": "NOAEL", "setting": "Canidae", "value": 0.5, "unit": "mg/kg-day"}, {"measurement": "NOEC", "setting": "Daphnia magna", "value": 0.509, "unit": "mg/L"}, {"measurement": "LC50", "setting": "Lepomis macrochirus", "value": 0.0884, "unit": "µg/mL"}, {"measurement": "NOAEL", "setting": "Oryctolagus sp.", "value": 7.5, "unit": "mg/kg-day"}, {"measurement": "LD50", "setting": "Rattus norvegicus; acute, oral, mortality", "value": 300, "unit": "mg/kg"}, {"measurement": "NOAEL", "setting": "Rattus norvegicus; chronic, duration: 2 years, organ weight", "value": 0.065, "unit": "mg/kg-day"}, {"measurement": "NOAEL", "setting": "Rattus norvegicus; reproduction developmental, body weight", "value": 0.065, "unit": "mg/kg-day"}, {"measurement": "LC50", "setting": "Tagia sp.; acute, mortality", "value": 830, "unit": "mg/kg"}, {"measurement": "NOEC", "setting": "Tagia sp.; chronic/long-term", "value": 810, "unit": "g/ha"}]}, {"compound": "COC(=O)[C@@H](C)Oc1ccc(Oc2ncc(C(F)(F)F)cc2Cl)cc1", "note": "[Haloxyfop-P-methyl]", "values": [{"measurement": "LD50", "setting": "Bird; oral, mortality", "value": 1160, "unit": "mg/kg-day"}, {"measurement": "NOEC", "setting": "Oncorhynchus mykiss", "value": 0.0052, "unit": "mg/L"}]}]}
